The cell lines below were run with O=C(c1cc(Cc2n[nH]c(=O)c3ccccc23)ccc1F)N1CCN(C(=O)C2CC2)CC1 [Olaparib] + Cc1cc(Nc2cc(N3CCN(C)CC3)nc(Sc3ccc(NC(=O)C4CC4)cc3)n2)n[nH]1 [Tozasertib] (partner 0.1 µM) (assay: relative viability (nuclei count vs DMSO), 5 days (fraction); higher = more cells survive). Conditions: first compound 0.08 µM.
Summary of the method: (§1)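 Cells from lung cancer lines were seeded into 1536-well plates and, one day later, dosed by pin tool. Treatments were either a single drug or a fixed dose of an anchor drug with five library-drug doses (not always all listed) in √10 steps. After 5 days, nuclei were stained in a one-step fixation (final 0.05% Triton X-100, 1% formaldehyde, 1 ug/ml Hoechst) and counted on 4× images, and relative viability is the treated-to-vehicle nuclei ratio, as the median of duplicate plates.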

Cell Line	relative viability
201T	1.05
A-427	0.196
ABC-1	0.22
BEN	0.53
CAL-12T	0.345
COR-L23	0.22
COR-L 105	0.368
ChaGo-K-1	0.286
EKVX	0.441
EMC-BAC-2	0.284
EPLC-272H	0.193
H3255	0.704
HARA	0.14
HCC-15	0.479
HCC-44	1.27
HCC-78	0.399
HCC-366	0.11
HCC-827	0.414
HOP-62	0.485
LC-2-ad	0.554
LCLC-97TM1	0.22
LCLC-103H	0.499
LK-2	0.161
NCI-H522	0.513
NCI-H1623	0.474
NCI-H1650	0.475
NCI-H2170	0.81
NCI-H2342	0.458
SW 900	0.516

Same assay, conditions: first compound 0.253 µM

Cell Line	relative viability
201T	0.91
A-427	0.209
ABC-1	0.149
BEN	0.48
CAL-12T	0.259
COR-L23	0.192
COR-L 105	0.351
ChaGo-K-1	0.198
EKVX	0.352
EMC-BAC-2	0.296
EPLC-272H	0.234
H3255	0.602
HARA	0.0884
HCC-15	0.341
HCC-44	0.857
HCC-78	1.61
HCC-366	0.118
HCC-827	0.376
HOP-62	0.317
LC-2-ad	0.429
LCLC-97TM1	0.211
LCLC-103H	0.47
LK-2	0.178
NCI-H522	0.541
NCI-H1623	0.446
NCI-H1648	0.482
NCI-H1650	0.391
NCI-H2170	0.806
NCI-H2342	0.552
SW 900	0.395

Same assay, conditions: first compound 2.53 µM

Cell Line	relative viability
201T	0.919
A-427	0.188
ABC-1	0.198
BEN	0.529
CAL-12T	0.281
COR-L23	0.176
COR-L 105	0.319
ChaGo-K-1	0.232
EKVX	0.388
EMC-BAC-2	0.279
EPLC-272H	0.312
H3255	0.82
HARA	0.0969
HCC-15	0.406
HCC-44	0.871
HCC-78	0.41
HCC-366	0.0926
HCC-827	0.399
HOP-62	0.374
LC-2-ad	0.436
LCLC-97TM1	0.262
LCLC-103H	0.528
LK-2	0.164
NCI-H522	0.593
NCI-H1623	0.493
NCI-H1650	0.372
NCI-H2170	0.705
NCI-H2342	0.479
SW 900	0.536

Same assay, conditions: first compound 8 µM

Cell Line	relative viability
201T	0.879
A-427	0.163
ABC-1	0.182
BEN	0.48
CAL-12T	0.235
COR-L23	0.12
COR-L 105	0.275
ChaGo-K-1	0.197
EKVX	0.445
EMC-BAC-2	0.262
EPLC-272H	0.172
H3255	0.496
HARA	0.0782
HCC-15	0.29
HCC-44	1.06
HCC-78	0.486
HCC-366	0.0619
HCC-827	0.378
HOP-62	0.287
LC-2-ad	0.437
LCLC-97TM1	0.238
LCLC-103H	0.41
LK-2	0.171
NCI-H522	0.621
NCI-H1623	0.413
NCI-H1648	0.556
NCI-H1650	0.361
NCI-H2170	0.629
NCI-H2342	0.416
SW 900	0.483

What follows are cell lines tested with O=C(c1cc(Cc2n[nH]c(=O)c3ccccc23)ccc1F)N1CCN(C(=O)C2CC2)CC1 [Olaparib] + CC(=O)Nc1cccc(-n2c(=O)n(C3CC3)c(=O)c3c(Nc4ccc(I)cc4F)n(C)c(=O)c(C)c32)c1 [Trametinib] (partner 0.02 µM) in the same assay as above. Conditions: first compound 0.08 µM.
Summary of the method: as §1

Cell Line	relative viability
201T	0.682
A-427	0.782
BEN	1.11
CAL-12T	0.351
COR-L23	0.661
COR-L 105	0.472
ChaGo-K-1	0.949
EKVX	0.425
EMC-BAC-2	0.971
EPLC-272H	0.363
H3255	0.652
HARA	0.882
HCC-15	0.422
HCC-44	1.04
HCC-78	0.861
HCC-366	0.311
HCC-827	0.52
HOP-62	0.358
LC-2-ad	0.877
LCLC-97TM1	0.237
LCLC-103H	0.669
LK-2	0.887
NCI-H522	0.679
NCI-H1648	0.455
NCI-H1650	0.6
NCI-H1792	0.461
NCI-H2170	0.937
NCI-H2342	0.8
SW 900	0.867

Same assay, conditions: first compound 0.253 µM

Cell Line	relative viability
201T	0.695
A-427	0.741
BEN	0.991
CAL-12T	0.292
COR-L23	0.642
COR-L 105	0.446
ChaGo-K-1	0.792
EKVX	0.427
EMC-BAC-2	0.844
EPLC-272H	0.272
H3255	0.633
HARA	0.66
HCC-15	0.387
HCC-44	0.949
HCC-78	0.647
HCC-366	0.311
HCC-827	0.508
HOP-62	0.359
LC-2-ad	0.819
LCLC-97TM1	0.165
LCLC-103H	0.689
LK-2	0.701
NCI-H522	0.733
NCI-H1648	0.513
NCI-H1650	0.503
NCI-H1792	0.448
NCI-H2170	0.925
NCI-H2342	0.871
SW 900	0.758

Same assay, conditions: first compound 2.53 µM

Cell Line	relative viability
201T	0.726
A-427	0.719
BEN	1.07
CAL-12T	0.417
COR-L23	0.498
COR-L 105	0.425
ChaGo-K-1	0.819
EKVX	0.313
EMC-BAC-2	0.932
EPLC-272H	0.306
H3255	0.583
HARA	0.732
HCC-15	0.39
HCC-44	1.01
HCC-78	0.716
HCC-366	0.268
HCC-827	0.498
HOP-62	0.393
LC-2-ad	0.894
LCLC-97TM1	0.215
LCLC-103H	0.679
LK-2	0.888
NCI-H522	0.711
NCI-H1650	0.62
NCI-H1792	0.382
NCI-H2170	0.883
NCI-H2342	0.802
SW 900	0.85

Same assay, conditions: first compound 8 µM

Cell Line	relative viability
201T	0.668
A-427	0.601
BEN	1.1
CAL-12T	0.305
COR-L23	0.451
COR-L 105	0.428
ChaGo-K-1	0.735
EKVX	0.362
EMC-BAC-2	0.806
EPLC-272H	0.287
H3255	0.567
HARA	0.632
HCC-15	0.353
HCC-44	0.996
HCC-78	0.707
HCC-366	0.214
HCC-827	0.478
HOP-62	0.333
LC-2-ad	0.809
LCLC-97TM1	0.203
LCLC-103H	0.652
LK-2	0.788
NCI-H522	0.715
NCI-H1648	0.418
NCI-H1650	0.565
NCI-H1792	0.398
NCI-H2170	0.8
NCI-H2342	0.742
SW 900	0.815

What follows are cell lines tested with CC(C)C[C@H](NC(=O)[C@H](CCc1ccccc1)NC(=O)CN1CCOCC1)C(=O)N[C@@H](Cc1ccccc1)C(=O)N[C@@H](CC(C)C)C(=O)[C@@]1(C)CO1 [Carfilzomib] + C[C@]1(O)C[C@@H](c2nc(-c3ccc4ccc(-c5ccccc5)nc4c3)c3c(N)nccn32)C1 [Linsitinib] (partner 1 µM) in the same assay as above. Conditions: first compound 0.001 µM.
Summary of the method: as §1

Cell Line	relative viability
201T	0.992
A549	0.478
A-427	1.12
ABC-1	0.837
BEN	0.968
CAL-12T	0.836
COR-L23	0.939
COR-L 105	0.937
Calu-6	0.941
EBC-1	0.87
EKVX	0.927
EMC-BAC-2	0.78
EPLC-272H	1.04
H3255	0.942
HARA	0.89
HCC-15	0.847
HCC-44	0.592
HCC-78	0.554
HCC-366	0.657
HCC-827	0.941
HOP-62	0.991
IA-LM	0.58
LC-2-ad	0.879
LCLC-97TM1	0.205
LCLC-103H	0.951
LK-2	0.815
NCI-H1299	1.02
NCI-H1563	1.19
NCI-H1703	0.91
NCI-H1792	0.492

Same assay, conditions: first compound 0.003162 µM

Cell Line	relative viability
201T	1.07

Reference: the supplement of paper PMC10307832
